According to ChEMBL document CHEMBL3860047, “Modulating the strength of hydrogen bond acceptors to achieve low Caco2 efflux for oral bioavailability of PARP inhibitors blocking centrosome clustering” (Bioorg Med Chem Lett, 2016):

Test: Dissociation constant, pKa of the compound
Assay type: physicochemical

pKa	SMILES
9.6	NCc1ccccc1 [BENZYLAMINE]
1.2	CN(C)C(=O)c1ccccc1
2.24	c1ccnnc1 [PYRIDAZINE]
1.54	C[S+](C)[O-] [DIMETHYL SULFOXIDE]
